According to ChEMBL document CHEMBL1201862, “PubChem BioAssay data set” (2004):
One block for each compound: values may come before it. Active and inactive are the calls of the source.

Tests used:
HEK293 [1] = assay: cells; format: functional, cell-based; settings: Homo sapiens
Tumor necrosis factor = Tumor necrosis factor (Homo sapiens, UniProt P01375); assay: analog potency on TNFa NF-kB signaling – cell-based, revised, SAR follow-up (AID 2337); format: functional
HEK293 [2] = assay: cells; format: functional, cell-based; settings: Homo sapiens; remark: listed apart in the source
[3] = molecular target: T1, Microphthalmia-associated transcription factor (Homo sapiens, UniProt O75030); assay: reducers of TRPM1 reporter luminescence, concentration series – cell-based, SK-MEL-5, cherry-picked, set 3, MITF inhibitor project, dose response (AID 493073); format: functional;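 further: SK-MEL-5 melanoma cells with luciferase driven by the MITF target TRPM1 promoter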
T1 sequence (O75030 whole entry): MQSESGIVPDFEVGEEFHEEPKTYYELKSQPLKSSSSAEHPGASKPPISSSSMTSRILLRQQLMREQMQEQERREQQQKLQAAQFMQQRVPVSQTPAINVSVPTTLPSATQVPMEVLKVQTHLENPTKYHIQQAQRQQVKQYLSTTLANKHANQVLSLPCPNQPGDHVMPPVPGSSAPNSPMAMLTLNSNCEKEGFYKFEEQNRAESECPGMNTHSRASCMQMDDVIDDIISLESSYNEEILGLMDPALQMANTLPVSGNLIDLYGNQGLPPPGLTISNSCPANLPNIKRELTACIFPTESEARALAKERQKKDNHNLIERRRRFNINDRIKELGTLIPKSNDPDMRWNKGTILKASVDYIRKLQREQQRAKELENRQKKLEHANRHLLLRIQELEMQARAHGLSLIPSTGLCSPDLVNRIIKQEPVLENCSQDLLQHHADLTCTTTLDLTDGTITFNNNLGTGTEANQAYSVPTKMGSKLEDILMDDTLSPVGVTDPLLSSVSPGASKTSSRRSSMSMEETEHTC

HEK293 [4] = assay: inhibition of NOD1-driven NF-kB reporter – cell-based, luminescence, uHTS, primary screen (AID 1578); format: functional; settings: Homo sapiens
[5] = non-specific 3'UTR reporter inhibition in Clone20-Shn3RL – cell-based, Renilla luciferase, cherry-picked, counter-screen for Shn3 inhibitor project, dose response (AID 624133); format: functional
[6] = reduction of Shn3 3'UTR-driven luciferase in osteoblasts – cell-based, Clone20 osteoblasts, firefly luciferase, cherry-picked, dose response (AID 624132); format: functional;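 further: firefly luciferase luminescence from reporter carrying the Shn3 3'UTR in osteoblasts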
HEK293 [7] = assay: cells; format: functional, cell-based; settings: Homo sapiens; remark: listed apart in the source
[8] = loss of viability in HepG2 cells – cell-based, CellTiter-Glo, cherry-picked, cytotoxicity control for Shn3 inhibitor project, dose response (AID 624134); format: functional
[9] = molecular target: Nucleotide-binding oligomerization domain-containing protein 2 (Homo sapiens, UniProt Q9HC29); assay: inhibition of NOD2-driven NF-kB reporter – cell-based, luminescence, uHTS, HEK293 (AID 1566); format: functional
HEK293 [10] = assay: cells; settings: Homo sapiens
[11] = molecular target: Nucleotide-binding oligomerization domain-containing protein 1 (Homo sapiens, UniProt Q9Y239); assay: blockers of NOD1 pathway activity – revised, SAR follow-up (AID 2333); format: functional
HEK293 [12] = assay: NOD2 signaling inhibitors in MDP-stimulated cells, cell-based, uHTS, luminescence (AID 2001); format: functional; settings: Homo sapiens
cells [13] = format: functional, cell-based
Albumin = Albumin (Bos taurus, UniProt P02769); assay: Counterscreen for inhibitors of T-cell receptor (TCR)-CD3 interaction: Fluorescence-based biochemical high throughput dose response assay to identify inhibitors of T-cell receptor (TCR)-CD3 interaction using a TAMRA-labeled BSA probe.; format: functional
[14] = molecular target: T2, Alkaline phosphatase, tissue-nonspecific isozyme (Homo sapiens, UniProt P05186); assay: activation of tissue-nonspecific alkaline phosphatase – biochemical, TNAP isozyme, mouse IAP uHTS hits, selectivity assay for mouse IAP activator project, dose response (AID 488880); format: functional
T2 sequence (P05186 whole entry): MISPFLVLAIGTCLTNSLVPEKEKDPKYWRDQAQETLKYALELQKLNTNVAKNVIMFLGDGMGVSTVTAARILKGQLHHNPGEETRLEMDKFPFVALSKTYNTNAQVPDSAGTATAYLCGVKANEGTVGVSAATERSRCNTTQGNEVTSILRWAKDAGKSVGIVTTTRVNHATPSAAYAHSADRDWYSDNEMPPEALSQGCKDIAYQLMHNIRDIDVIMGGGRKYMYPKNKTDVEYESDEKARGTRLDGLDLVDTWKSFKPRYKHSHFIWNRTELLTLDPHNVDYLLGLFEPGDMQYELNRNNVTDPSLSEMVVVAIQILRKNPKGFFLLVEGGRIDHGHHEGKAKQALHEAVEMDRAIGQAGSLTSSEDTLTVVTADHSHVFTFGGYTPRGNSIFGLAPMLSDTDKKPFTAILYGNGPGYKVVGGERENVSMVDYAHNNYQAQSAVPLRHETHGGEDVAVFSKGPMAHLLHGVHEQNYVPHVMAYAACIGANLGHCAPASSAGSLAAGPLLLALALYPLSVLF

[15] = molecular target: T3, Trace amine-associated receptor 1 (Homo sapiens, UniProt Q96RJ0); assay: Counterscreen for agonists of the human trace amine associated receptor 1 (hTAAR1): Fluorescence-based cell-based high throughput dose response assay to identify hTAAR1 agonist that also desensitize TAAR1 receptor response.; format: functional
T3 sequence (Q96RJ0 whole entry): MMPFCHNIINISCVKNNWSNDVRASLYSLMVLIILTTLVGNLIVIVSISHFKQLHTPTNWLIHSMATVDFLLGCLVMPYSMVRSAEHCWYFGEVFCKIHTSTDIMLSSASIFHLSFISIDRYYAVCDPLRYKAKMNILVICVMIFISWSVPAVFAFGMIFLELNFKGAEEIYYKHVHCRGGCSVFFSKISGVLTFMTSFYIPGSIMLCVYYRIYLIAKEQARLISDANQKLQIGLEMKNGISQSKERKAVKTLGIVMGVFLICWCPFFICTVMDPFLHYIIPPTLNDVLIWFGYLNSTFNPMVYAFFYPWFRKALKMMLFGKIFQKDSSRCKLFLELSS

Large T antigen = Large T antigen (Simian virus 40, UniProt P03070); format: functional, Betapolyomavirus macacae;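 further: Confirmatory-stage PubChem screen for compounds that inhibit SV40 T antigen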
[16] = molecular target: Intestinal-type alkaline phosphatase (Homo sapiens, UniProt P09923); assay: activation of human intestinal alkaline phosphatase – biochemical, dose response (AID 488873); format: functional
Aspartyl aminopeptidase = Aspartyl aminopeptidase (Plasmodium falciparum 3D7, UniProt Q8I2J3)
[17] = molecular target: Dual specificity tyrosine-phosphorylation-regulated kinase 1A (Rattus norvegicus, UniProt Q63470); format: biochemical, Homo sapiens
Procathepsin L = Procathepsin L (Homo sapiens, UniProt P07711)
SUMO-activating enzyme [18] = molecular target: T4, SUMO-activating enzyme (Homo sapiens, UniProt Q9UBT2); assay: blockers of SAE1/SAE2–UBC9 SUMO transfer – biochemical, HTRF, uHTS, primary screen (AID 2006); format: protein-complex assay
cells [19] = format: functional, cell-based; remark: listed apart in the source
SUMO-activating enzyme [20] = molecular target: T4, SUMO-activating enzyme; assay: blockers of UBC9-mediated SUMO conjugation – biochemical, AlphaScreen, SUMOylation inhibitor project, confirmation (AID 2018); format: functional
[21] = molecular target: T3, Trace amine-associated receptor 1; assay: Fluorescence-based cell-based high throughput dose response assay to identify agonists of the human trace amine associated receptor 1 (TAAR1).; format: functional
[22] = molecular target: T5, RNA-binding protein pos-1 (Caenorhabditis elegans, UniProt G5EF15); assay: disruptors of C. elegans POS-1 RNA interaction – biochemical, fluorescence polarization, dose response (AID 1964);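 further: purified POS-1 fused to maltose binding protein made in E. coli; potency of compounds blocking POS-1 binding to fluorescent RNA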
T5 sequence (G5EF15 whole entry): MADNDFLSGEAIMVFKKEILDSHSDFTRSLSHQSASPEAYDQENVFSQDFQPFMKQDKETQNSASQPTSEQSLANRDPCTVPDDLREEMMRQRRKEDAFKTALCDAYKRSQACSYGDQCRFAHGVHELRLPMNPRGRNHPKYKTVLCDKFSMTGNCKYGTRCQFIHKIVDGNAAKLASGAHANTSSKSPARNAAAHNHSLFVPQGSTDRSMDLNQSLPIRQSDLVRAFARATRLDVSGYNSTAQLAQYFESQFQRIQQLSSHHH

[23] = molecular target: Intestinal-type alkaline phosphatase (Mus musculus, UniProt P24822); assay: mouse intestinal alkaline phosphatase activators, dose response, biochemical, luminescence, uHTS hits (AID 488783); format: functional
[24] = molecular target: T6, Zinc finger protein mex-5 (Caenorhabditis elegans, UniProt Q9XUB2); assay: potency of MEX-5 RNA-binding blockers – biochemical, C. elegans, fluorescence polarization, dose response (AID 1960)
T6 sequence (Q9XUB2 whole entry): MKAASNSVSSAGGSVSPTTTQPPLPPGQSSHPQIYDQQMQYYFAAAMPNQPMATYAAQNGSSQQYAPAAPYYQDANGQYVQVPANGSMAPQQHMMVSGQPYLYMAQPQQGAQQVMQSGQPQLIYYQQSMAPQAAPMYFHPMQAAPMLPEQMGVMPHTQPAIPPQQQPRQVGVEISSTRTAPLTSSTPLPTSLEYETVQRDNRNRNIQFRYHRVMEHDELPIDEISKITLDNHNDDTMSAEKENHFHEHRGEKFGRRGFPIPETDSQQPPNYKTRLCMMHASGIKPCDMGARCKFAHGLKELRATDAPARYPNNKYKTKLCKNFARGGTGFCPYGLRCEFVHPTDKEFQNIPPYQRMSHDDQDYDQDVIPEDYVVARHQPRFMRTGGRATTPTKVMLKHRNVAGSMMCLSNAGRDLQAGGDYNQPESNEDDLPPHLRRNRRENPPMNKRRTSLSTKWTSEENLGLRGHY

[25] = molecular target: Alkaline phosphatase, placental type (Homo sapiens, UniProt P05187); assay: human placental alkaline phosphatase inhibition – biochemical, luminescence, confirmation (AID 1512); format: functional
[26] = molecular target: Glyceraldehyde-3-phosphate dehydrogenase (Homo sapiens, UniProt P04406)
Estrogen receptor beta = Estrogen receptor beta (Homo sapiens, UniProt Q92731); assay: blockers of SRC-3 recruitment to ERβ – biochemical, ELISA, streptavidin-HRP readout, orthogonal assay, confirmation (AID 1060)
Bcl-2-like protein 10 = molecular target: T7, Bcl-2-like protein 10 (Homo sapiens, UniProt Q9HD36); assay: Bcl-B/TR3 peptide binding disruption – biochemical, fluorescence polarization, FITC-TR3 peptide, selectivity assay for Bfl-1 inhibitor project, primary screen (AID 748);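 further: fluorescence polarization from a fluorescein-labelled TR3 peptide binding purified Bcl-B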
T7 sequence (Q9HD36 whole entry): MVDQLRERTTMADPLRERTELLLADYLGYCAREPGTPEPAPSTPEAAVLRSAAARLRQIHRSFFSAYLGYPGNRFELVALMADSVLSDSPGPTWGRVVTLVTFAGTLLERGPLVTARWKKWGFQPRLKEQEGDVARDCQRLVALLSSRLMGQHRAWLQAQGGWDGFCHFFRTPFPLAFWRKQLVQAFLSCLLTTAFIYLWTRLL

[27] = molecular target: T2, Alkaline phosphatase, tissue-nonspecific isozyme; assay: potency against alkaline phosphatase TNAP – biochemical, luminescent, dose response, SAR follow-up (AID 1056)
Leucine aminopeptidase = molecular target: T8, Leucine aminopeptidase (Plasmodium falciparum 3D7, UniProt Q8IL11); assay: P. falciparum M17LAP inhibitors, primary screen, biochemical, fluorogenic H-Leu-NHMec substrate, 1536-well (AID 1619); format: functional
T8 sequence (Q8IL11 whole entry): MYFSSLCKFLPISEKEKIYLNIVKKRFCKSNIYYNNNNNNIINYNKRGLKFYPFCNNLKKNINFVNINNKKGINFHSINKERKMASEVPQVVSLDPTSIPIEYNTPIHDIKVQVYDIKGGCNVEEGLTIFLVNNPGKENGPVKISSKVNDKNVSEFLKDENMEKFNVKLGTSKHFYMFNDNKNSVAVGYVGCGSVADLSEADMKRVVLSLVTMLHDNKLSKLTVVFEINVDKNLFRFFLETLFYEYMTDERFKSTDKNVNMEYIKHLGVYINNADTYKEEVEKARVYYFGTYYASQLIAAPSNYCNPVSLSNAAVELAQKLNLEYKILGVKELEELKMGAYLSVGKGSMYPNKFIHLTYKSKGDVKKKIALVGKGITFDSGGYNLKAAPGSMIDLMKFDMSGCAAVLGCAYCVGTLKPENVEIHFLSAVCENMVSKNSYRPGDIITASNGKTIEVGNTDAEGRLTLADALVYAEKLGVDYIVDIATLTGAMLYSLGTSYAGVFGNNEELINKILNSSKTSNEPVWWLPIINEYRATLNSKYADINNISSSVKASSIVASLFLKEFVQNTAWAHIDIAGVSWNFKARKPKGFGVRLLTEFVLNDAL

Chain of Intestinal-type alkaline phosphatase (Mus musculus, UniProt P24822) (P24822 whole entry): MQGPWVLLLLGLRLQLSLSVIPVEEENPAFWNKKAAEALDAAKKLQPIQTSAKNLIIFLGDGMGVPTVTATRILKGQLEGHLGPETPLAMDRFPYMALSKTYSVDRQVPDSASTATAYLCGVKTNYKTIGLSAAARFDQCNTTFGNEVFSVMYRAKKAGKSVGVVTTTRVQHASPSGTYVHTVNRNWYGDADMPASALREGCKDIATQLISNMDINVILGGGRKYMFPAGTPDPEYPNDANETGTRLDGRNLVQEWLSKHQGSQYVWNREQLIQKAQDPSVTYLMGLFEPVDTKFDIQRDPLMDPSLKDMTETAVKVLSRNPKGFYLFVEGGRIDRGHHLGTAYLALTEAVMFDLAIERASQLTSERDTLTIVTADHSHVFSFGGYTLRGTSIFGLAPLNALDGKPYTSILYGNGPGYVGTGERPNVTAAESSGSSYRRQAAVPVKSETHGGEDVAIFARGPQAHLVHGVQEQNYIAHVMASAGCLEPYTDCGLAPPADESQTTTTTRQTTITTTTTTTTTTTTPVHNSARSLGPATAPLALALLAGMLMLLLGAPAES
Chain of Intestinal-type alkaline phosphatase (Homo sapiens, UniProt P09923) (P09923 whole entry): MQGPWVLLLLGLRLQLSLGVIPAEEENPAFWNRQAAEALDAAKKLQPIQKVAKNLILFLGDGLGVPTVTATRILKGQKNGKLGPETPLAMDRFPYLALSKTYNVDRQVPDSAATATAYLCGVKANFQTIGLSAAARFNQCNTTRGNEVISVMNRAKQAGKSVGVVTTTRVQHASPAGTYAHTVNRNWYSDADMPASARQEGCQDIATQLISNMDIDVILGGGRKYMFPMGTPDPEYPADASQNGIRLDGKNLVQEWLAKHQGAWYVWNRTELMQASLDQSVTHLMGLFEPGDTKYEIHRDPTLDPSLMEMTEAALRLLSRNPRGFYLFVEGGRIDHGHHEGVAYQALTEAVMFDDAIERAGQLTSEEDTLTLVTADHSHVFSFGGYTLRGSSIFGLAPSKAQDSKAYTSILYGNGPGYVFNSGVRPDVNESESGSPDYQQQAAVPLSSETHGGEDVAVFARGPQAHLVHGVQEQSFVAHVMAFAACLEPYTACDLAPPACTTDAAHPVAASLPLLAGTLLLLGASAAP
Chain of Large T antigen (P03070 whole entry): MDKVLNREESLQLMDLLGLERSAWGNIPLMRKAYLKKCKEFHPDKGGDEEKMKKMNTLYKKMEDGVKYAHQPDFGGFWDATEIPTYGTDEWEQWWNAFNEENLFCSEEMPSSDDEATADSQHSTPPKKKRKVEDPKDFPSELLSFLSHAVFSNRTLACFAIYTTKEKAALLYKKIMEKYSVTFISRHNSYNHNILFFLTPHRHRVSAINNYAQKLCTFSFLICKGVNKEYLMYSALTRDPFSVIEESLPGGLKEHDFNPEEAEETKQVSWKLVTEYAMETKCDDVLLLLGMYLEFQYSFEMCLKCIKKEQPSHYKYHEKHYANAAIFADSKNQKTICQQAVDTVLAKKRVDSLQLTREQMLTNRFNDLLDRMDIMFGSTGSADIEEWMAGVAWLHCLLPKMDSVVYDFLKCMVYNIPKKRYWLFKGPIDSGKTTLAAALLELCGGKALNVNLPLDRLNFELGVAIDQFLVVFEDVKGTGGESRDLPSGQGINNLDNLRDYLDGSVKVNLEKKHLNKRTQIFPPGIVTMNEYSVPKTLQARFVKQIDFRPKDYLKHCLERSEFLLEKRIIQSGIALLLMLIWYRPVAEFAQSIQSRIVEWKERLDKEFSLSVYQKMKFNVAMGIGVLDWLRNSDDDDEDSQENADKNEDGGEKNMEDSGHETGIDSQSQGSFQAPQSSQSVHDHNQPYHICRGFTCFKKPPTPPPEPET
T4 sequence (Q9UBE0 whole entry): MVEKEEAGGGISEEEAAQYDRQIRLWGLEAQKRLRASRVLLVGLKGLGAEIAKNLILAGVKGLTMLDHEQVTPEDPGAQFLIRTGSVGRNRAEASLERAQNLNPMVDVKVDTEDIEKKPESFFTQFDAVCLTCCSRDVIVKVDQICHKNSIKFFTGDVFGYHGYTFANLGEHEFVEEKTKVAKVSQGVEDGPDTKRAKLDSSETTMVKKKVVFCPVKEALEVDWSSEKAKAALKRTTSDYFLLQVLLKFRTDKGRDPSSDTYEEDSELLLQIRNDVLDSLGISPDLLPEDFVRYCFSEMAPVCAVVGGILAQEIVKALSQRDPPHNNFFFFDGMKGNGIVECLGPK
T4 sequence (Q9UBT2 whole entry): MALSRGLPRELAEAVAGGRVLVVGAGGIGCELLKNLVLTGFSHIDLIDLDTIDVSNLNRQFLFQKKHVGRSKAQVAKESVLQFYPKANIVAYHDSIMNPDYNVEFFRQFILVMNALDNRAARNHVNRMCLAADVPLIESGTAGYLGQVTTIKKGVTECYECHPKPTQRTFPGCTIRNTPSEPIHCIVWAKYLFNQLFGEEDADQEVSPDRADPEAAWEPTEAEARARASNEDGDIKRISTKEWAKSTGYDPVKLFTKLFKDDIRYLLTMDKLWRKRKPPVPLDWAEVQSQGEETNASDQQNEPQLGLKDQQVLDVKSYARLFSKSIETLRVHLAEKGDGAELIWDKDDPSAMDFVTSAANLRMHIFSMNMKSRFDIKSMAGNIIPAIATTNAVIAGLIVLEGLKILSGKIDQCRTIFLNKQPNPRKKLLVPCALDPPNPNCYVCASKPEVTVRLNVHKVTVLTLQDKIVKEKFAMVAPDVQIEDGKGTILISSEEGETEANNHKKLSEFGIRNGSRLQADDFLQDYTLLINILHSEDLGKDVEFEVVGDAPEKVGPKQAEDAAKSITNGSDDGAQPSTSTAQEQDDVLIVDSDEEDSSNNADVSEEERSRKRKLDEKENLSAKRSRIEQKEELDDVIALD
Chain of Nucleotide-binding oligomerization domain-containing protein 1 (Q9Y239 whole entry, the tested form may be a part): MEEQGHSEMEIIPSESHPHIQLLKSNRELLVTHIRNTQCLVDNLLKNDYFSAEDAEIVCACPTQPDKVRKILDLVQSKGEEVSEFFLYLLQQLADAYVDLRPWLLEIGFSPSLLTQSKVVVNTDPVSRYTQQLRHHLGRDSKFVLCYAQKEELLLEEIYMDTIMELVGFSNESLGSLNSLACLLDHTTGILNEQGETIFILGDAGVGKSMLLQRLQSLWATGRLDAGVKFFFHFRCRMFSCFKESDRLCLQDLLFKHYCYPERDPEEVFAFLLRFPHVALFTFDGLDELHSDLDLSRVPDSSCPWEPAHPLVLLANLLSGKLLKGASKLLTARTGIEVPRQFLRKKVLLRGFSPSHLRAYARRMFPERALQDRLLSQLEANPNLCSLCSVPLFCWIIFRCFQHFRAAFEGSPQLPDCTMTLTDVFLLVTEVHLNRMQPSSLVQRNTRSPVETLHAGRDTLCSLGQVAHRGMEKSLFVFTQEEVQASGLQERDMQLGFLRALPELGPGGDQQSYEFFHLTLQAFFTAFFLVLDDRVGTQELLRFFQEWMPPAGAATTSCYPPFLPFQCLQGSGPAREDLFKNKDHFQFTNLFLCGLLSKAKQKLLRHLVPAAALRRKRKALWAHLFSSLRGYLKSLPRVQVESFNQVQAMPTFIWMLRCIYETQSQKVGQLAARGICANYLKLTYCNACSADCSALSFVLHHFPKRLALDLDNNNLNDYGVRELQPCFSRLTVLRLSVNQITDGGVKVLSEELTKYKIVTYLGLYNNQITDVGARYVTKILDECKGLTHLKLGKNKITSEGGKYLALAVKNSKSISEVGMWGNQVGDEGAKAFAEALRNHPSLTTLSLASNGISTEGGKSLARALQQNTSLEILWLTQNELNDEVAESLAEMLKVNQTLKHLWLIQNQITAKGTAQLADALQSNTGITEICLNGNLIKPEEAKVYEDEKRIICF
Chain of Estrogen receptor beta (Q92731 whole entry): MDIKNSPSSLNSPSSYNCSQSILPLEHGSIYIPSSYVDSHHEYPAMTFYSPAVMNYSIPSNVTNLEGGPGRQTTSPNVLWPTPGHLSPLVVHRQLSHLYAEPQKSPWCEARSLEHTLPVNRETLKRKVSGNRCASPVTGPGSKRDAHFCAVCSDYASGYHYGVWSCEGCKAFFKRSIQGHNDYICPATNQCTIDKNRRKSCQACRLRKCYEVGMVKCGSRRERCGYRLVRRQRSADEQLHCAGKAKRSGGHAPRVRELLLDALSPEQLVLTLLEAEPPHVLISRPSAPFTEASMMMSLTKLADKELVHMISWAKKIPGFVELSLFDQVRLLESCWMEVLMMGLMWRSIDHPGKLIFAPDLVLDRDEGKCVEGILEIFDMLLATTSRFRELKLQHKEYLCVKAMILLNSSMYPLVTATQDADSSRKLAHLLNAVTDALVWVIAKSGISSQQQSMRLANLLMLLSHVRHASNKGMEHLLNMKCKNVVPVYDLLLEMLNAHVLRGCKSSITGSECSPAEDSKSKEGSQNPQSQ
Chain of Alkaline phosphatase, placental type (P05187 whole entry): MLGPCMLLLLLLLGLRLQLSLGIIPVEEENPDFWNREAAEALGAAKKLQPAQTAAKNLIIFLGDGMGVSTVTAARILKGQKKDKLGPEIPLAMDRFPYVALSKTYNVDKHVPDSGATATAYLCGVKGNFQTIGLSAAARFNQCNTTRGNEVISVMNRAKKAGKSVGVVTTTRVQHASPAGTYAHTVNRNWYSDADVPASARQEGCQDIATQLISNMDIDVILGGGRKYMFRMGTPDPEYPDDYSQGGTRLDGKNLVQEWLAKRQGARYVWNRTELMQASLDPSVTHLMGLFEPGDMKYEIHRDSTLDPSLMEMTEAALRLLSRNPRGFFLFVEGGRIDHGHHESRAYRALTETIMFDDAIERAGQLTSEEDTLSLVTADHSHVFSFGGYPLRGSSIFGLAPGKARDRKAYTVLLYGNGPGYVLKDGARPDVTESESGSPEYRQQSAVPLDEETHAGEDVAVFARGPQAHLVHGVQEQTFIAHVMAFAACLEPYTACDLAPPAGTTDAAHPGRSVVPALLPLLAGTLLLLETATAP

SMILES: CCOC(=O)N1CCN(C(=O)c2ccc(Cn3c(=S)[nH]c4ccc(Br)cc4c3=O)cc2)CC1
IC50 (HEK293 [1]): 9.03 µM (active) | IC50 (Tumor necrosis factor): 4.69 µM (active) | IC50 (HEK293 [2]): > 20 µM (inactive) | AC50 [3]: 3.52 µM (active) | EC50 (HEK293 [4]): 4.23 µM (active) | AC50 [5]: 0.793 µM (active) | AC50 [6]: 1.25 µM (active) | IC50 (HEK293 [7]): > 20 µM (inactive) | AC50 [8]: > 70 µM (inactive) | EC50 [9]: 4.18 µM (active) | IC50 (HEK293 [10]): 18.7 µM (active) | IC50 [11]: 4.77 µM (active) | IC50 (HEK293 [12]): 6.26 µM (active)

SMILES: O=C(N/N=C/c1ccc(O)c(O)c1)N/N=C/c1ccc(O)c(O)c1
IC50 (cells [13]): > 29.9 µM (inactive) | IC50 (Albumin): > 94.1 µM (inactive) | EC50 [14]: 79.4 µM (active) | IC50 [15]: > 9.97 µM (active) | IC50 (Large T antigen): 0.73 µM (active) | EC50 [16]: 66.2 µM (active) | IC50 (Aspartyl aminopeptidase): 2.79 µM (active) | AC50 [17]: 1.63 µM (active) | IC50 (Procathepsin L): > 59.6 µM (not active) | IC50 (SUMO-activating enzyme [18]): 2.11 µM (active) | EC50 (cells [19]): > 29.9 µM (inactive) | IC50 (SUMO-activating enzyme [20]): 0.69 µM (active) | EC50 [21]: 0.647 µM (active) | EC50 [22]: 16.2 µM (active) | EC50 [23]: 4.96 µM (active) | EC50 [24]: 4.86 µM (inconclusive)

EC50 [14]: 36.4 µM (active) | IC50 (Large T antigen): 15.2 µM (active) | EC50 [16]: 42.4 µM (active) | IC50 [25]: 11.4 µM (active) | IC50 [26]: > 100 µM (not active) | IC50 (Estrogen receptor beta): 15.6 µM (not active) | IC50 (Bcl-2-like protein 10): 31.5 µM (active) | IC50 [27]: 5.9 µM (active) | IC50 (Leucine aminopeptidase): 8.31 µM (active) | EC50 [23]: 63.4 µM (active)
SMILES: O=C(CSc1nnc(-c2ccccc2)[nH]1)c1ccc(O)c(O)c1
